Assay results: publication PMC2610419 (Chemical biology & drug design, 2006)
Positions count from the first letter of the chain named. “Also recorded” adds a separate entry of the source. Square brackets hold non-standard residues; d marks the D form. Ends that are not written are not given here. pS = N[C@@H](COP(=O)(O)O)C(=O)O

Legend:
Set-up in all cases: species or system murine
Abl SH2 domain Arg36Lys = molecular target: T1, Abl SH2 domain Arg36Lys (Mus musculus, UniProt P00520, R152K); test: HSQC NMR titration ligand-binding assay, Arg36Lys mutant; conditions: 135 mM KCl
T1 sequence (P00520 120-220 R152K): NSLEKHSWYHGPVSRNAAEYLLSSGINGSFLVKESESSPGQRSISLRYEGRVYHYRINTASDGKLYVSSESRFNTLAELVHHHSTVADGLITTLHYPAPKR

Abl SH2 domain Arg45Gln = molecular target: T2, Abl SH2 domain Arg45Gln (Mus musculus, UniProt P00520, R161Q); test: HSQC NMR titration ligand-binding assay, Arg45Gln mutant; conditions: read-out: Affinity in high salt, 135 mM KCl
T2 sequence (P00520 120-220 R161Q): T1 sequence (P00520 120-220 R152K) with K33R, R42Q

Abl SH2 domain Arg59Gln = molecular target: T3, Abl SH2 domain Arg59Gln (Mus musculus, UniProt P00520, R175Q); test: HSQC NMR titration ligand-binding assay, Arg59Gln mutant; conditions: for Affinity in high salt: 135 mM KCl; for Kd: read-out: Affinity in high salt, 135 mM KCl
T3 sequence (P00520 120-220 R175Q): T1 sequence (P00520 120-220 R152K) with K33R, R56Q

[1] = molecular target: T4, Abl SH2 domain (wild type) (Mus musculus, UniProt P00520); test: HSQC NMR titration ligand-binding assay, wild type Abl SH2 domain; conditions: for Affinity in high salt: 135 mM KCl, HSQC titration, ± standard error
T4 sequence (P00520 120-220): T1 sequence (P00520 120-220 R152K) with K33R

Affinity in high salt (Abl SH2 domain Arg36Lys)	Kd (Abl SH2 domain Arg45Gln) [µM]	Affinity in high salt (Abl SH2 domain Arg59Gln)	Kd (Abl SH2 domain Arg59Gln) [µM]	Affinity in high salt [1]	Compound	other results
Not detectable	900 ± 60	almost completely disrupted	> 10000	–	CCCC(=O)OC[C@H](COP(=O)(O)O[C@@H]1[C@H](O)[C@H](O)[C@@H](OP(=O)(O)O)[C@H](OP(=O)(O)O)[C@H]1O)OC(=O)CCC [diC4-PtdIns(4,5)P2, dibutanoyl (C4) PtdIns(4,5)P2]	Affinity in high salt (Abl SH2 domain Arg36Lys; listed as PtdIns(4,5)P2): abolished
–	–	–	–	–	CCCCCCCC(=O)OC[C@H](COP(=O)(O)O[C@@H]1[C@H](O)[C@H](O)[C@@H](OP(=O)(O)O)[C@H](OP(=O)(O)O)[C@H]1O)OC(=O)CCCCCCC [diC8-PtdIns(4,5)P2, dioctanoyl (C8) PtdIns(4,5)P2]	stronger affinity of the C8 over C4 form of PtdIns(4,5)P2 ([1]; ratio of affinities): 1.6 fold
abolished; also recorded: Not detectable	390 ± 13	reduced to millimolar levels	2500 ± 200	–	N[C@@H](Cc1ccc(OP(=O)(O)O)cc1)C(=O)O [pTyr, phosphotyrosine]	–
–	–	–	–	Not detectable	GQSSRV[pS]PSPTTY [BCR pSer354 peptide]	–
–	–	–	–	very weak	phosphatidic acid [Phosphatidicacid]	–

Compound	Affinity in high salt (Abl SH2 domain Arg36Lys)	Kd (Abl SH2 domain Arg45Gln) [µM]	Affinity in high salt (Abl SH2 domain Arg59Gln)	Kd (Abl SH2 domain Arg59Gln) [µM]	Affinity in high salt [1]	other results
phosphatidylserine	–	–	–	–	Not detectable	Affinity in high salt ([1]; listed as PtdSer): very weak
